Results taken from patent US20070191493A1, “Use of n-alkanols as activators of the cftr channel” (priority 2003, published 2007).
pEC50: −log10 of the molar value. Like-named read-outs stand apart in the source and are kept apart here.

Legend:
[1] = biological target: T1, human CFTR channel endogenously expressed in Calu-3 (Homo sapiens, UniProt P13569); test: iodide efflux in Calu-3 human bronchial epithelial cells; format: cell-based; settings: for pEC50: Calu-3 cells, read-out: half-effect concentration (EC50)
T1 construct: human pulmonary epithelial cells endogenously expressing the CFTR channel; host or cells: Calu-3 human pulmonary epithelial cells
T1 sequence (P13569 whole entry): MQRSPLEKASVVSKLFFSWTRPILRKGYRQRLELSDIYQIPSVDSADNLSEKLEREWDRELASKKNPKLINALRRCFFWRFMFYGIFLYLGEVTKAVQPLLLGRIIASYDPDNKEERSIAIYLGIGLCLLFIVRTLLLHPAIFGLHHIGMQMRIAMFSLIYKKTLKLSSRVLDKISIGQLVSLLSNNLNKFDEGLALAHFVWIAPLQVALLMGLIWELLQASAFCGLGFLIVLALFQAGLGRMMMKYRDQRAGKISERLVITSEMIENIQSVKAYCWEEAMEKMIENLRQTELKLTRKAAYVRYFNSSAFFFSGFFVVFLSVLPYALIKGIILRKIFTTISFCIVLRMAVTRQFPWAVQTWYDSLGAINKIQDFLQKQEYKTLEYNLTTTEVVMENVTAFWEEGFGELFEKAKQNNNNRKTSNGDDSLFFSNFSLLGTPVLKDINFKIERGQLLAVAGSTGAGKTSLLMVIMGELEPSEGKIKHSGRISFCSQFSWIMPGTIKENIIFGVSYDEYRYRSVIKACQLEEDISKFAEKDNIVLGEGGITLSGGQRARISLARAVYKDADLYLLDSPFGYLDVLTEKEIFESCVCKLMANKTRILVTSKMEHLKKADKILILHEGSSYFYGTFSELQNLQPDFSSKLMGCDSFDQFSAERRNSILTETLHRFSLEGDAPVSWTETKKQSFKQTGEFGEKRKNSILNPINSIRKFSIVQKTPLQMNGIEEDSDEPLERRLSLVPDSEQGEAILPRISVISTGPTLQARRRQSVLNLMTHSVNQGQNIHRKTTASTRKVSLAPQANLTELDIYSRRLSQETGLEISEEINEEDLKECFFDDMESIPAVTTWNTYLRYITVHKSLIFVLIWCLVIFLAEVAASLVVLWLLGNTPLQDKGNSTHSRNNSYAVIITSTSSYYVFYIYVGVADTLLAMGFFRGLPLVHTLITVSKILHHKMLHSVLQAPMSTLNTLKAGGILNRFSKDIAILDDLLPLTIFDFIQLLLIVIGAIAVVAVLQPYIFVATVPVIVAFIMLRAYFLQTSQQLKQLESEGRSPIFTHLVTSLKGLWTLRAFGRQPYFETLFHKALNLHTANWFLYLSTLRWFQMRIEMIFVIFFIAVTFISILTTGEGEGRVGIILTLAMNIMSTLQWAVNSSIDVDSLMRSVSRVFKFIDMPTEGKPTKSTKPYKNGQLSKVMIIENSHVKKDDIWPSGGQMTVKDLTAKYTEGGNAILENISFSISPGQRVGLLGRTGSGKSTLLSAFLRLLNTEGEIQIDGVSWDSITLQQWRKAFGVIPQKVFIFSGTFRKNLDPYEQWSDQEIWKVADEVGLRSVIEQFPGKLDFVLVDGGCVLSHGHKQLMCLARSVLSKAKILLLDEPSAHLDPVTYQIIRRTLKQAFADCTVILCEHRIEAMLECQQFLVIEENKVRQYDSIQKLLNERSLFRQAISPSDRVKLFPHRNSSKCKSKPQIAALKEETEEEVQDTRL
Protocol: (§1) The CFTR studies are also carried out on Calu-3 cells (ATCC No. HTB-55), which are human pulmonary epithelial cells endogenously expressing the CFTR channel. These cells are cultured under the same culture conditions as the CHO cells. The study of the mutated CFTR channel is carried out on JME/CF15 cells, which are epithelial cells extracted from respiratory airways of patients suffering from cystic fibrosis (homozygous ΔF508) (Jefferson et al., 1990). These cells therefore express the ΔF508 mutated CFTR channel. These cells are cultured under the same conditions as above, but the culture medium is supplemented with a hormone mixture containing: adenine (180 μM), insulin (5 μg/ml), transferrin (5 μg/ml), hydrocortisone (1.1 μM), triiodothyronine (2 nM), epinephrine (5.5 μM), epidermal growth factor (1.64 nM).
(§2) This technique makes it possible to follow the kinetics of exit of the ^125I radioactive iodide. The cells are cultured in 24-well plates with a dilution to 1/10 after passage. On the fourth day of culture, the drugs to be tested are dissolved in solution according to the desired concentration, at 37° C., in medium B, at pH 7.4, containing, in mM: 137 NaCl, 5.36 KCl, 0.8 mM MgCl2, 1.8 mM CaCl2, 5.5 glucose and 10 HEPES-NaOH. The wells are washed 4 times with 500 μl of medium B. The solution is subsequently replaced with 500 μl of loading solution containing 1 μM KI and 0.5 μCi of ^125INa/ml for 30 min. The kinetics of exit of ^125I are determined after having eliminated the loading solution and washed the wells 4 times with 500 μl of medium B. For the ^125I exit kinetics, 500 μl of medium B containing or not containing the molecules to be tested are incubated for 30 sec in the wells and recovered in a hemolysis tube, so as to be replaced with 500 μl of medium B containing or not containing the molecules to be tested. The operation is repeated every 30 s for 2 to 6 min. At the end of the efflux, the intracellular ions are extracted by adding 1 ml of trichloroacetic acid (7.5%) to the cell layer. All the samples are counted in a gamma counter (Kontron). The precipitated proteins are solubilized in 0.1N NaOH and quantified using a calorimetric test.
(§3) The tracer contained in the cell layer at the beginning of the efflux is calculated as the sum of the samples and of the extracts counted. The efflux curves are constructed by expressing the percentage of the content remaining in the cell layer (I %) with respect to time. The stimulated or nonstimulated efflux rate constants (k, min^−1) are determined by smoothing the efflux curves to a monoexponential function I %=100*exp(−kt) using a linear regression of the neperian logarithm of the data, k is used to calculate the iodide released into the medium with respect to time. The hypothesis is made that, in the presence of a stimulator, the efflux is the sum of two iodide effluxes occurring in parallel: a basal efflux and a stimulated efflux characterized, respectively, by the constants kb and ks. The total net efflux is then described by the equation It^%=100*(1−exp(−ktt)) where kt is the sum of kb and ks. Finally, ks calculated as kt−kb is used to establish a dose-response relationship for antagonists. The data is expressed as means ±SD, and the t-test is used to determine the significances. […] Y begins at the basal level and progresses to the plateau (Ymax), X is the concentration and the half-effect values (EC are calculated using GraphPad Prism v3.0 (GraphPad software)).

CHO cells = test: ATP-induced calcium response (cellular uncoupling) in CHO cells; format: cell-based, Chinese hamster; settings: α-GA 10 to 100 μM, octan-1-ol 1 mM
Protocol: The Ca^2+ measurements are carried out in the presence of fura-2 (impermeant fluorescent probe) which binds […]. The cells are incubated in serum-free DMEM/F12 culture medium in the presence of the permeant form of fura-2 (fura-2/AM, 2.5 μM) for 1 h at 37° C. The cells, placed on the platform of an epifluorescent microscope (Olympus) (20× objective), are perfused with the solutions to be tested (e.g. ATP, octanol). They are sequentially illuminated at 340 nm and 380 nm and the fluorescence emitted (F) is measured at 510 nm. It is detected via a 12-bit CCD camera (Sony) connected to a data processing computer unit (TILL Photonics). The intracellular Ca^2+ concentration [Ca^2+]i is calculated using the Grynckiewicz equation (Grynckiewicz et al., 1985): [Ca^2+]i=Kdi *(R−Rmin/Rmax−R), based on the ratiometric analysis R (340/380 nm) of the fluorescence (TILL Vision); Rmax and Rmin denote the ratio of fluorescence measured in the presence or in the absence of Ca^2+.

CHO-CFTR(-) cells = test: 125I iodide efflux in CHO-CFTR(-) control cells that do not express CFTR; format: cell-based, Chinese hamster; settings: octan-1-ol 0.1 to 5 mM, FSK 5 μM, A23187 2 μM
intracellular cAMP level = test: total intracellular cAMP assay in CHO-CFTR(+) cells; format: cell-based, Chinese hamster; settings: 5 min, FSK 1 or 5 μM, alcohols 1 mM
Protocol: The CHO cells are cultured for four days in a 24-well culture plate. On the fourth day of culture, each well is rinsed twice with 500 μl of medium B, and 500 μl of this buffer containing the molecule to be tested are added to each well. After incubation at 37° C. for 5 min, the reaction is stopped by adding a cell lysis buffer. The cell lysis is verified with Trypan blue. The amount of cAMP contained in the cells is determined using the Enzyme Immuno Assay kit (Amersham Biotechnology). The cAMP level is expressed in pmol/well ±SD.

[2] = biological target: T2, ΔF508 mutated CFTR channel (Homo sapiens, UniProt P13569, DEL508-508); test: iodide efflux in JME/CF15 human bronchial epithelial cells from cystic fibrosis patients; format: cell-based; settings: JME/CF15 cells
T2 construct: epithelial cells extracted from respiratory airways of patients suffering from cystic fibrosis (homozygous ΔF508); endogenous in cells; host or cells: JME/CF15 human airway epithelial cells (homozygous ΔF508)
T2 sequence (P13569 with tags, fused parts or gaps DEL508-508): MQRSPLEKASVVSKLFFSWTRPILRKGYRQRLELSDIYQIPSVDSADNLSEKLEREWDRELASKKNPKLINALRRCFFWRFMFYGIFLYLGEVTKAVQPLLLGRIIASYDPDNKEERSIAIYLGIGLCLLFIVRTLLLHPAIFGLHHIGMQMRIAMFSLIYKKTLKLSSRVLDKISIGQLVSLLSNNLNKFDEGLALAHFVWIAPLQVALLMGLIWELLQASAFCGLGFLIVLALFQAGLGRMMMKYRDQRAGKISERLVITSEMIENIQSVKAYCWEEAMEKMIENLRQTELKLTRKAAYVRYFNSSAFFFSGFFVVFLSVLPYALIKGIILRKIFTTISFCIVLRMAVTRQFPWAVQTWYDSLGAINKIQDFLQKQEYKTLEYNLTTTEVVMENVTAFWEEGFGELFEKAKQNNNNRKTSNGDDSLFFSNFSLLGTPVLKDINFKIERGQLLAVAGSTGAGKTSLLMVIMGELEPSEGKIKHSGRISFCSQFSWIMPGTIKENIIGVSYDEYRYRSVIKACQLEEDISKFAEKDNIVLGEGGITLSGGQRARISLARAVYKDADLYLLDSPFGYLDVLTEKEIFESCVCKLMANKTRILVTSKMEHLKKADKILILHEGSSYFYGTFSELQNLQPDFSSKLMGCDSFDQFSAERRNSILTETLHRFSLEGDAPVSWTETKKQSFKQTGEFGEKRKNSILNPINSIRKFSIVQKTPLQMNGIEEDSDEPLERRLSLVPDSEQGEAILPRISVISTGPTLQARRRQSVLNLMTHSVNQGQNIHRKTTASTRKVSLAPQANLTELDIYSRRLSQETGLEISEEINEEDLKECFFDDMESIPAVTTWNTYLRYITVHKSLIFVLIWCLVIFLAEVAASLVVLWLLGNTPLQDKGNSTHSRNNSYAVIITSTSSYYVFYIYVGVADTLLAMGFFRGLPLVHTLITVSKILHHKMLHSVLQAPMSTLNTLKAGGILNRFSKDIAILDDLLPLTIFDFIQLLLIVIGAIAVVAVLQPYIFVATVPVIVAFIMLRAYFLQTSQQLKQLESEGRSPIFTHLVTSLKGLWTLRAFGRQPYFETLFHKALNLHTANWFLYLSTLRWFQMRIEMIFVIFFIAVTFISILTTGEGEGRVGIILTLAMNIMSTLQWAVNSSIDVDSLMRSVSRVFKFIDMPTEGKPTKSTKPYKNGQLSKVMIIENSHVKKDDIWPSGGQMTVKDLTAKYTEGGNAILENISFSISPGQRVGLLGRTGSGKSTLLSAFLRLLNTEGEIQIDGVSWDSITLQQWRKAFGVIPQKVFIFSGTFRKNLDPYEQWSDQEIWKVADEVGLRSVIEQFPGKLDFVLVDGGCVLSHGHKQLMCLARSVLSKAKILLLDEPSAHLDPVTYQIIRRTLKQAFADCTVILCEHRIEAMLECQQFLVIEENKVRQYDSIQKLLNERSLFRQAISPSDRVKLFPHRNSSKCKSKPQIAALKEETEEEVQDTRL
Protocol: as §1, §2, §3

pEC50 ([1]; in the absence of FSK): 2.94
pEC50 ([1]; in the presence of FSK (1 μM)): 3.29
activation of iodide efflux in Calu-3 cells, in words ([1]; octan-1-ol 0.1 to 10 mM, FSK 1 μM): activates the exit of iodide
effect on the basal level when the mutated channel is not present at the plasma membrane [2]: has no effect on the basal level
activation of mutated CFTR-ΔF508 channel as share of maximum activity (10 μM FSK+30 μM genistein = 100%) ([2]; octan-1-ol 1 mM): approximately 50%
Compound: CCCCCCCCO [octan-1-ol]
cellular uncoupling shown by ATP-induced calcium response (CHO cells): clearly uncouples the cells
effect on basal level of 125I efflux in cells not expressing CFTR (CHO-CFTR(-) cells): do not significantly modify the basal level
effect on intracellular cAMP level (intracellular cAMP level): neither octan-1-ol, hexan-1-ol or ethanol modifies the basal cAMP level
activation of ΔF508 mutated CFTR channel, in words ([2]; 1 mM): specifically activates the ΔF508 mutated CFTR channel
